Results: PMC7403315, “Cyclic peptide FXII inhibitor provides safe anticoagulation in a thrombosis model and in artificial lungs” (Nature Communications, 2020)
Values joined by “and” are separate entries in the source; they are usually repeats but may differ in a detail not shown here. Equal values may be shown once. Read-outs that look alike come from different tables or passages of the source. Starred links: 1 amine or outer side, 2 acyl side, 3 side chain; linkers in the order of their positions; H or OH if unused. Positions of bridges follow the written chain, without caps; N, C: chain ends. Non-standard residues stand in square brackets, D forms with d. Residues, ends and D or L forms follow the SMILES beside them. TATA = O=C(CC[*:1])N1CN(C(=O)CC[*:2])CN(C(=O)CC[*:3])C1; Phe(4-F) = N[C@@H](Cc1ccc(F)cc1)C(=O)O; β3hR = N=C(N)NCCC[C@H](N)CC(=O)O

Legend:
[1] = target: T1, factor VIIa (Homo sapiens, UniProt P08709); experiment: Specificity profiling, residual protease activity; assay type: biochemical
T1 construct: (Molecular Innovations) 0.05 nM, factor VIIa (Haematologic Technologies) 50 nM, factor Xa; purchased Haematologic Technologies
T1 sequence (P08709 213-466 limits assumed): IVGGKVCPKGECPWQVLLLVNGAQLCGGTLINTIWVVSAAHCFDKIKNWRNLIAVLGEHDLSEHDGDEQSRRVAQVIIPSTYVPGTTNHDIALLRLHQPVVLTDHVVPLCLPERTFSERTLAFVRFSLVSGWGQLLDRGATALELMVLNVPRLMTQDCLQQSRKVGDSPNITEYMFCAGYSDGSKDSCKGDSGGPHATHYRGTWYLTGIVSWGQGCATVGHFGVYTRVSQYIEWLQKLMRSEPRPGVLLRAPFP
T1 sequence (P08709 61-212 limits assumed): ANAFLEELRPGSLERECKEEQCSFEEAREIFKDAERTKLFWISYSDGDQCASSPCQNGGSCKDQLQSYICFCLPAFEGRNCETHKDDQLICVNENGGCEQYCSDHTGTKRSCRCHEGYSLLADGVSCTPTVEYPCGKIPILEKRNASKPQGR

[2] = Plasma stability assay (residual FXIIa inhibitory activity after plasma incubation); assay type: in vitro ADME, human; settings: for Residual activity of inhibitor: human plasma 37 °C; for half-life at 10 μM: human, plasma
Description: Peptide (2 μl of 2 mM in H2O) was added to 398 μl of citrated human plasma (Innovative Research) to obtain a final peptide concentration of 10 μM. The mixture was incubated in a water bath at 37 °C. At different time points (0, 0.5, 1, 2, 4, 8, 12, 24, 48, and 96 h), samples of 30 μl were removed, diluted to 200 μl with aqueous buffer (10 mM Tris-HCl, pH 7.4, 150 mM NaCl, 10 mM MgCl2, 1 mM CaCl2), and incubated for 20 min at 65 °C to inactivate plasma proteases. The peptide/plasma samples were stored at −20 °C until the residual inhibitory activity of the peptides was measured in a FXIIa inhibition assay. […] IC50 values were derived from the fitted curve using an equation described in the Supplementary Methods. Residual inhibition in % was calculated using the equation IC50,0h/IC50,xh*100, wherein IC50,0h is the functional strength of the inhibitor at time point 0 and IC50,xh the functional strength of the inhibitor after one of the different plasma incubation periods mentioned above.

With `CC(C)C[C@@H]1NC(=O)[C@H](CCC(N)=O)NC(=O)[C@H](Cc2c[nH]cn2)NC(=O)[C@@H]2CSCCC(=O)N3CN(CN(C3)C(=O)CCSC[C@H](NC(=O)[C@@H](CO)NC(=O)[C@H](N)CCCNC(=N)N)C(=O)N[C@@H](Cc3ccc(F)cc3)C(=O)N[C@@H](CCCNC(=N)N)C(=O)N[C@@H](CC(C)C)C(=O)N3CCC[C@H]3C(=O)N2)C(=O)CCSC[C@@H](C(N)=O)NC(=O)C[C@H](CCCNC(=N)N)NC1=O` [FXII900] (H-[dR][dS]C[Phe(4-F)]RLPCHQL[β3hR]C-NH2; linker 3-8-13 via TATA) the “Residual activity of FVIIa” value ([1]; inhibitor 5000 nM, 5 µM) was 109.299%, the remaining activity at 5 µM ([1]; inhibitor 5000 nM, read-out: Residual activity of FVIIa) was 108% and the “Residual activity of FVIIa” value ([1]; inhibitor 10000 nM, 10 µM) was 109.026%. The remaining activity at 10 µM ([1]; inhibitor 10000 nM, read-out: Residual activity of FVIIa) was 107%, the “Residual activity of FVIIa” value ([1]; inhibitor 20000 nM, 20 µM) was 101.426% and the remaining activity at 20 µM ([1]; inhibitor 20000 nM, read-out: Residual activity of FVIIa) was 101%. For the same compound, the “Residual activity of FVIIa” value ([1]; inhibitor 40000 nM (40 µM), 40 µM) was 102.615% and 96.13%, the remaining activity at 40 µM ([1]; inhibitor 40000 nM (40 µM), read-out: Residual activity of FVIIa) was 97.1% and the Ki ([1]; read-out: Ki FVIIa) was greater than 40 µM. For the same compound, the “Residual activity of inhibitor” value ([2]; incubation time 0 h) was 100%, the “Residual activity of inhibitor” value ([2]; incubation time 1 h) was 95.4017% and 101.157% and the “Residual activity of inhibitor” value ([2]; incubation time 2 h) was 110.888% and 102.799%. The “Residual activity of inhibitor” value ([2]; incubation time 4 h) was 107.121% and 93.1543%, the “Residual activity of inhibitor” value ([2]; incubation time 8 h) was 88.5873% and 105.225% and the “Residual activity of inhibitor” value ([2]; incubation time 12 h) was 112.249% and 90.2639%. The “Residual activity of inhibitor” value ([2]; incubation time 24 h) was 92.7385% and 98.9596%, the “Residual activity of inhibitor” value ([2]; incubation time 48 h) was 82.5714% and 71.5934% and the “Residual activity of inhibitor” value ([2]; incubation time 96 h) was 52.5% and 56.04%. The half-life at 10 μM ([2]; 37 °C, remaining FXIIa inhibitory activity, read-out: half-life in human plasma (converted)) was 128 h and the half-life at 10 μM ([2]; t1/2 in plasma) was greater than 120 h.
